From patent US9440930B2, “Substituted bicyclic dihydropyrimidinones and their use as inhibitors of neutrophil elastase activity” (Boehringer Ingelheim International GmbH, priority 2014, dated 2016)
Values after ≈ are worked out from the molar mass of the structure shown.

How the values were obtained:
[1] = molecular target: T1, neutrophil elastase in human plasma (Homo sapiens, UniProt P08246); assay: Neutrophil elastase inhibitory activity in human plasma; type: biochemical; conditions: zymosan-stimulated human plasma, substrate MeOSuc-Ala-Ala-Pro-Val-AMC 250 μM
T1 construct: The stimulated blood is centrifuged to generate the neutrophil elastase enriched plasma; from tissue; host or cells: plasma from zymosan-stimulated citrated whole blood of healthy human donors
T1 sequence (P08246 30-267): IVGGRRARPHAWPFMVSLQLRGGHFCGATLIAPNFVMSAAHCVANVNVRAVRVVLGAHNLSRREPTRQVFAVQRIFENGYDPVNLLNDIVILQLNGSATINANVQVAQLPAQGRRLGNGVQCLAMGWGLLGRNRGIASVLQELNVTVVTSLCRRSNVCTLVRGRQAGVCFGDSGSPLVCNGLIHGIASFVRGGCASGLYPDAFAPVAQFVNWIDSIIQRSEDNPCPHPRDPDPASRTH
Experimental: Assay for the Determination of Neutrophil Elastase Inhibitory Activity in Human Plasma
Citrated blood from human healthy donors is mixed with zymosan suspension and incubated at room temperature. This leads to the stimulation of neutrophils and the release of neutrophil elastase into the plasma. The stimulated blood is centrifuged to generate the neutrophil elastase enriched plasma.
• A single 45 ml blood sample is taken into a 50 ml tube containing citrate (3.13%, 5 mL) and the tube is gently inverted 4 times. • Immediately after blood sampling, zymosan working solution (5 mL) is added. • After the addition of zymosan working solution, the tubes are capped, mixed gently and incubated at 22° C. for 15 min on a shaker at 20 rpm. • Make 10 ml aliquots after the incubation time. • Centrifuge the 15 ml tubes at 800 g for 15 min at 4° C. in a Jouan centrifuge. • Harvest the plasma and make 1-5 ml aliquots. • Store the plasma at −80° C.
A dose response curve is generated to calculate the EC50 of the inhibitor. The analysis of the data is performed by the calculation of the percentage of fluorescence in the presence of the test compound compared to the fluorescence of the vehicle control after subtracting the background fluorescence: An inhibitor of the neutrophil elastase enzyme will give values between 100% control (no inhibition) and 0% control (complete inhibition).

cytochrome P450 2C9 = molecular target: T2, cytochrome P450 2C9 (Homo sapiens, UniProt P11712); assay: Cytochrome P450 2C9 inhibition; type: in vitro ADME; conditions: human liver microsomes, Diclofenac hydroxylation
T2 construct: is assayed at 37° C. with human liver microsomes; from tissue; host or cells: human liver microsomes
T2 sequence (P11712 whole entry): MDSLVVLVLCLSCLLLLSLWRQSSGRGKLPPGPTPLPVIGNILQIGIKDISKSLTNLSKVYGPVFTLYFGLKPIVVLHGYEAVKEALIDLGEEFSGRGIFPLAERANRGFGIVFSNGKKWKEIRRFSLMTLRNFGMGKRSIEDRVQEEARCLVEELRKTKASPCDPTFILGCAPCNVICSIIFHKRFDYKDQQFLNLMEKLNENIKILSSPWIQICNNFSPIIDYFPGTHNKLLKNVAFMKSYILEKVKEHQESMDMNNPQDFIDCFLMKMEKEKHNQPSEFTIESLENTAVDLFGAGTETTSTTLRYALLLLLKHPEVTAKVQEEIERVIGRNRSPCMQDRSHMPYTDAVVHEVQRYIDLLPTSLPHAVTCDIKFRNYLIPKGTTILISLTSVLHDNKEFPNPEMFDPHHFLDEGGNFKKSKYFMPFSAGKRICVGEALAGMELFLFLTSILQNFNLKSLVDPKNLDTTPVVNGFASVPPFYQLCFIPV
Source text: Assay for Determination of Cytochrome P450 2C9 Inhibition

[2] = Metabolic stability with human liver microsomes; type: in vitro ADME; conditions: pooled human liver microsomes, pH 7.6; human liver microsomes 1 mg/ml, 1 μM compound, 37° C., NADPH; read-out: t1/2 INVITRO
Aqueous solubility = type: physicochemical; conditions: McIlvaine buffer pH 6.8 containing 2.5% DMSO, kinetic from dmso stock, McIlvaine buffer pH 6.8, 2.5% DMSO, 24 h shaking
Experimental: Assay for Determination of Aqueous Solubility
Starting from a 10 min DMSO stock solution, aliquots are diluted with acetonitrile/water (1/1) and McIlvaine buffer pH 6.8, respectively. After 24 h of shaking, the solutions or suspensions are filtered and analyzed by LC-UV. The amount dissolved in buffer is compared to the amount dissolved in the acetonitrile/water (1/1) solution. Solubility is measured from 0.001 to 0.125 mg/ml at a DMSO concentration of 2.5%. If more than 90% of the compound is dissolved in buffer, the value is marked with “>”.

[3] = molecular target: T3, Human neutrophil elastase (Homo sapiens, UniProt P08246); assay: Human Neutrophil Elastase Assay; type: biochemical; conditions: substrate MeOSuc-Ala-Ala-Pro-Val-AMC 250 μM, pH 7.5, room temperature
T3 construct: purchased Calbiochem 324681
T3 sequence (P08246 30-247 limits assumed): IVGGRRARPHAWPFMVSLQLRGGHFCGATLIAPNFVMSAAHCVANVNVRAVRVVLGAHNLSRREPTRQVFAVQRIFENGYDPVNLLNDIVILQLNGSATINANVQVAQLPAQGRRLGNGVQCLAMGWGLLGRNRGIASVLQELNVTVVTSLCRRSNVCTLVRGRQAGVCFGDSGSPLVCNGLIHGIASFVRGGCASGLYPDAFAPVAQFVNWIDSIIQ
Source text: Human Neutrophil Elastase Assay

hERG potassium channel = hERG potassium channel (Homo sapiens, UniProt Q12809); assay: hERG inhibition; type: cell-based; conditions: human; at 10 μM
Sequence of hERG potassium channel (Q12809 whole entry): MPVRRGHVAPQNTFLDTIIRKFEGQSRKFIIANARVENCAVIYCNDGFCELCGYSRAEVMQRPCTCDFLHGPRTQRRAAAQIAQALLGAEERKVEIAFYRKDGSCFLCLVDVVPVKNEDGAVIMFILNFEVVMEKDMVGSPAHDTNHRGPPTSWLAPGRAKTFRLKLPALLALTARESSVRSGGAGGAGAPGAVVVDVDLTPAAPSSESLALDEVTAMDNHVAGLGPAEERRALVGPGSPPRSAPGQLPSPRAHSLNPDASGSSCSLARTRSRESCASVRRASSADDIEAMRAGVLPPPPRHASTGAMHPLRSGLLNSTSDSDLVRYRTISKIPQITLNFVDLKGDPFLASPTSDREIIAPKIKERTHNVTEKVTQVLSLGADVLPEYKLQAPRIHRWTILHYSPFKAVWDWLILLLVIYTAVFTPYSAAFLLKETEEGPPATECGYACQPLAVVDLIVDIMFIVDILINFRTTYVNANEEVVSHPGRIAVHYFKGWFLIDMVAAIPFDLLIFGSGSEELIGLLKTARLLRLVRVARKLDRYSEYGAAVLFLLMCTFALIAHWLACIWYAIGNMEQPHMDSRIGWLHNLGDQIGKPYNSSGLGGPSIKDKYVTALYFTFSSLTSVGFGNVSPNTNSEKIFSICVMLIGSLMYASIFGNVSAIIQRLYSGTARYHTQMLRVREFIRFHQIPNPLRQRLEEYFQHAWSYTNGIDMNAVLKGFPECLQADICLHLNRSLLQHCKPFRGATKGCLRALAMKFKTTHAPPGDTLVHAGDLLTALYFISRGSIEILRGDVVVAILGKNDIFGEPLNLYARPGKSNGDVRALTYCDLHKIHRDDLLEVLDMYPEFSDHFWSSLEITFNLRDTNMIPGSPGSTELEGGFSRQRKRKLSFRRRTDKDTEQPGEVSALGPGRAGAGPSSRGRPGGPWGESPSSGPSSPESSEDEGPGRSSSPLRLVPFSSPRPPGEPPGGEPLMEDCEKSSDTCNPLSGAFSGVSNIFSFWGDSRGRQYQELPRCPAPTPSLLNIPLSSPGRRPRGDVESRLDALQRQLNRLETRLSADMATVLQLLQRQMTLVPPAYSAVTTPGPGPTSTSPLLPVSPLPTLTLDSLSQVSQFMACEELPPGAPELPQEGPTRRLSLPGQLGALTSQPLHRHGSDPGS

[4] = molecular target: hERG (human ether-a-go-go-related gene) potassium channel (Homo sapiens, UniProt Q12809); assay: hERG inhibition; type: cell-based
Sequence of hERG (human ether-a-go-go-related gene) potassium channel (Q12809 whole entry): as above

cytochrome P450 2C19 = molecular target: T4, cytochrome P450 2C19 (Homo sapiens, UniProt P33261); assay: Cytochrome P450 2C19 inhibition; type: in vitro ADME; conditions: human liver microsomes, (S)-Mephenytoin hydroxylation
T4 construct: is assayed at 37° C. with human liver microsomes; from tissue; host or cells: human liver microsomes
T4 sequence (P33261 whole entry): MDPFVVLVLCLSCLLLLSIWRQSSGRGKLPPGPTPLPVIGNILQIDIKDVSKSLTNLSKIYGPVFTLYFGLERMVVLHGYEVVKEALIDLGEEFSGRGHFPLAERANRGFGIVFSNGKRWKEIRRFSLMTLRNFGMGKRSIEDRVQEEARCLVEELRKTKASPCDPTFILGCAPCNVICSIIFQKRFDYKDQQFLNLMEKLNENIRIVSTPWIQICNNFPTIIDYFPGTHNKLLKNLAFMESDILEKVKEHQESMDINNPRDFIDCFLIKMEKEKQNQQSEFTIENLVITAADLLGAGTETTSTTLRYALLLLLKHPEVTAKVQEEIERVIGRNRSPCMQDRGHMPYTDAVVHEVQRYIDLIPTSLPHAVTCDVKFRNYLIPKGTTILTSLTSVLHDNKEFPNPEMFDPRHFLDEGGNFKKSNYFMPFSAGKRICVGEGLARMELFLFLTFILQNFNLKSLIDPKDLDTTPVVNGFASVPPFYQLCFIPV
Source text: Assay for Determination of Cytochrome P450 2C19 Inhibition

human hepatocytes = assay: Metabolic stability with human hepatocytes; type: in vitro ADME; conditions: human hepatocyte suspension, 1 μM compound, well stirred model
Experimental: Assay for the Determination of Metabolic Stability with Human Hepatocytes
The metabolic degradation of the test compound is assayed in a human hepatocyte suspension. Human hepatocytes (typically cryopreserved) are incubated in an appropriate buffer system (e.g. Dulbecco's modified eagle medium plus 3.5 μg glucagon/500 mL, 2.5 mg insulin/500 mL and 3.75 mg/500 mL hydrocortison) containing 5% species serum. Following a (typically) 30 min preincubation in an incubator (37° C., 10% CO2), 5 μl of test compound solution (80 μM; from 2 min stock solution in DMSO diluted 1:25 with medium) are added into 395 μl hepatocyte suspension (cell density in the range 0.25-5*10^6 cells/mL, typically 1*10^6 cells/mL; final concentration of test compound 1 μM, final DMSO concentration 0.05%). The cells are incubated for six hours (incubator, orbital shaker) and samples (25 μl) are taken at 0, 0.5, 1, 2, 4 and 6 hours. Samples are transferred into acetonitrile and pelleted by centrifugation (5 min). The supernatant is transferred to a new 96-deepwell plate, evaporated under nitrogen and resuspended. The decline of parent compound is analyzed by LC-MS/MS. […]

SMILES: CN1C(=O)N(c2cccc(C(F)(F)F)c2)C2=C(C(=O)CCC2)[C@H]1c1ccc(C#N)cc1[S+](C)[O-] (single isomer, unassigned) [Example 2.2A, 3-Methanesulfinyl-4-[3-methyl-2,5-dioxo-1-(3-trifluoromethyl-phenyl)-1,2,3,4,5,6,7,8-octahydro-quinazolin-4-yl]-benzonitrile]
- EC50 [1]: 1 nM
- IC50 (cytochrome P450 2C9): > 50 µM
- half-life at 1 μM [2]: > 130 min
- solubility at 24 h (Aqueous solubility): 55 µg/mL (≈ 113 µM)
- IC50 [3]: < 1 nM
- inhibition at 10 µM (hERG potassium channel): 9%
- IC50 [4]: > 30 µM
- IC50 (cytochrome P450 2C19): > 50 µM
- predicted hepatic in vivo blood clearance (human hepatocytes): 5 % human hepatic blood flow
